ChEMBL document CHEMBL3044853, “Anti-HIV-1 and cytotoxicity studies of piperidyl-thienyl chalcones and their 2-pyrazoline derivatives” (Med Chem Res, 2012)

Assays:
[1] = system: Human immunodeficiency virus 1; experiment: Antiviral activity against 0.1 MOI of Human immunodeficiency virus 1 LAI infected human PBM cells after 2 to 3 hr by scintillation counting analysis in presence of [3H]thymidine-5'-triphosphate; type: functional, organism-based; details: PBMC
Vero = experiment: Cytotoxicity against Chlorocebus aethiops (African green monkey) Vero cells after 5 days celltiter 96 aqueous assay; type: cell-based; details: Chlorocebus sabaeus, 120 h
PBMC = experiment: Cytotoxicity against Homo sapiens (human) PBMCs after 5 days celltiter 96 aqueous assay; type: cell-based; details: 120 h
CCRF-CEM = experiment: Cytotoxicity against Homo sapiens (human) CEM cells after 5 days celltiter 96 aqueous assay; type: cell-based; details: 120 h

Structure (SMILES)	EC50 [1]	EC90 [1]	IC50 (Vero)	IC50 (PBMC)	IC50 (CCRF-CEM)
O=C(/C=C/c1ccc(N2CCCCC2)cc1)c1ccc(Br)s1	46.5 µM	≥ 100 µM	69.5 µM	> 100 µM	52.8 µM
Cc1ccc(C(=O)/C=C/c2ccc(N3CCCCC3)cc2)s1	17.9 µM	30.9 µM	50.5 µM	77.8 µM	21.2 µM
Cc1cn([C@H]2C[C@H](N=[N+]=[N-])[C@@H](CO)O2)c(=O)[nH]c1=O [ZIDOVUDINE]	–	0.026 µM	–	> 100 µM	–
O=C(/C=C/c1ccc(N2CCCCC2)cc1)c1sccc1Br	5.8 µM	27.8 µM	18 µM	39.3 µM	12.5 µM
O=C(/C=C/c1ccc(N2CCCCC2)cc1)c1ccsc1	56 µM	≥ 100 µM	34.4 µM	> 100 µM	32.1 µM
O=C(/C=C/c1ccc(N2CCCCC2)cc1)c1cc(Cl)sc1Cl	11.8 µM	24.7 µM	24.9 µM	42.8 µM	15 µM
O=C(/C=C/c1ccc(N2CCCCC2)cc1)c1ccc(Cl)s1	35.4 µM	≥ 100 µM	32.4 µM	> 100 µM	41.5 µM
Cc1cc(C(=O)/C=C/c2ccc(N3CCCCC3)cc2)c(C)s1	11.6 µM	23.6 µM	42.3 µM	38.2 µM	16.6 µM
O=C(/C=C/c1ccc(N2CCCCC2)cc1)c1cccs1	73.8 µM	≥ 100 µM	65.5 µM	> 100 µM	11.6 µM
Brc1ccc(C2=NNC(c3ccc(N4CCCCC4)cc3)C2)s1 (configuration not stated)	9 µM	33.3 µM	25.8 µM	80 µM	21.5 µM
Cc1csc(C(=O)/C=C/c2ccc(N3CCCCC3)cc2)c1	11.6 µM	23.1 µM	56.3 µM	68.8 µM	33.3 µM
c1cc(C2=NNC(c3ccc(N4CCCCC4)cc3)C2)cs1 (configuration not stated)	11.3 µM	≥ 100 µM	29.5 µM	> 100 µM	27 µM
Clc1ccsc1C1=NNC(c2ccc(N3CCCCC3)cc2)C1 (configuration not stated)	2.4 µM	13.1 µM	31.6 µM	34.2 µM	10.2 µM
Cc1ccsc1C(=O)/C=C/c1ccc(N2CCCCC2)cc1	2.5 µM	19.6 µM	63.9 µM	26.4 µM	9.9 µM
O=C(/C=C/c1ccc(N2CCCCC2)cc1)c1ccc(I)s1	11.6 µM	≥ 100 µM	56.5 µM	> 100 µM	22 µM
Cc1cc(C2=NNC(c3ccc(N4CCCCC4)cc3)C2)c(C)s1 (configuration not stated)	16.9 µM	29.8 µM	83.4 µM	77.5 µM	20.1 µM
Cc1ccsc1C1=NNC(c2ccc(N3CCCCC3)cc2)C1 (configuration not stated)	5.1 µM	15.5 µM	11.4 µM	11 µM	2.3 µM
Ic1ccc(C2=NNC(c3ccc(N4CCCCC4)cc3)C2)s1 (configuration not stated)	14.5 µM	43.6 µM	15.9 µM	> 100 µM	36.5 µM
c1csc(C2=NNC(c3ccc(N4CCCCC4)cc3)C2)c1 (configuration not stated)	7.3 µM	26.8 µM	3.2 µM	20.8 µM	6.9 µM
Clc1ccc(C2=NNC(c3ccc(N4CCCCC4)cc3)C2)s1 (configuration not stated)	75.3 µM	> 100 µM	> 100 µM	> 100 µM	> 100 µM
Cc1csc(C2=NNC(c3ccc(N4CCCCC4)cc3)C2)c1 (configuration not stated)	13 µM	24.9 µM	31.6 µM	24.4 µM	16.3 µM
Brc1ccsc1C1=NNC(c2ccc(N3CCCCC3)cc2)C1 (configuration not stated)	17.4 µM	30.4 µM	24.8 µM	57 µM	31.6 µM
O=C(/C=C/c1ccc(N2CCCCC2)cc1)c1sccc1Cl	8.4 µM	29 µM	18.1 µM	32.1 µM	12.2 µM
Clc1cc(C2=NNC(c3ccc(N4CCCCC4)cc3)C2)c(Cl)s1 (configuration not stated)	32.5 µM	> 100 µM	53.9 µM	59 µM	37.7 µM
Cc1ccc(C2=NNC(c3ccc(N4CCCCC4)cc3)C2)s1 (configuration not stated)	7.2 µM	52.9 µM	52 µM	86.4 µM	15.3 µM
